Experimental data taken from article PMC6988263 (Parasites & Vectors, 2020).

Biological target: T1, rHc-HRG-2 (recombinant Hc-HRG-2) (Haemonchus contortus, UniProt A0A7I5E8W1)
T1 construct: vector His tag), expressed in E. coli, Ni-NTA purified
Assay: GSH-CDNB conjugation, absorbance at […] nm
Format: biochemical
Settings: 1 mM GSH, 0.1 M potassium phosphate pH 6.5, 10 μM protein

T1 sequence (A0A7I5E8W1 entry or part of it): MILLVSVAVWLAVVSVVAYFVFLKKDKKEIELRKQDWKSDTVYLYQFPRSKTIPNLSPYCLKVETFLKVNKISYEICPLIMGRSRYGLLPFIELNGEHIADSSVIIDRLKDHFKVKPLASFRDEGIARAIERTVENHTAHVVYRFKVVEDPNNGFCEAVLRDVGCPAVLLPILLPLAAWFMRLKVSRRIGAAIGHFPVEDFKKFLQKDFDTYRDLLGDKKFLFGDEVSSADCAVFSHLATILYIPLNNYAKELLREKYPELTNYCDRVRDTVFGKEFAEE

SMILES: O=[N+]([O-])c1ccc(Cl)c([N+](=O)[O-])c1 [CDNB, 1-chloro-2,4-dinitrobenzene]
- Km: 508 ± 34.1 µM
